Where two headings read alike, the source gives them in different places.
Assays:
S. aureus (Clinical) = settings: 200 ppm gNO, saline suspension; cited from earlier work
[1] = test system: highly pathogenic Avian Influenza H7N3; settings: cited from earlier work
[2] = Phase I safety study: oxygen saturation (SpO2) by pulse oximeter; assay type: in vivo, human
Description: (§1) After obtaining informed consent, treatment was initiated within 5 days of enrollment. Subjects were housed in a hospital ward and received 160 ppm gNO for 30 minutes every four hours (Q4 h), five times a day, for five consecutive days by inhalation. Subjects returned for follow-up evaluations 3, 7 and 21 days after the final gNO administration. Subject safety was determined by monitoring vital signs, methemoglobin levels, lung function, blood chemistry, hematology, prothrombin time, inflammatory cytokine/chemokines levels and endothelial activation.
Abbreviated physical examination by a registered nurse was carried out each day prior to initiation of treatments on days 1-5. Oxygenation was measured with a pulse oximeter (Rad 57, Masimo Corporation, USA) which was used according to manufacturer's guidelines to measure functional oxygen saturation of arterial hemoglobin (SpO2) and heart rate. These parameters were measured continuously during every gNO administration and for 3.5 hours after the first treatment of the day.

inflammatory cytokines = assay: Phase I safety study: plasma cytokine levels by cytokine bead array; assay type: in vivo, human; settings: vs baseline
Description: as §1
(§2) Hematological assessment included a complete blood count and differentials (hemoglobin, hematocrit, red blood cell count, white blood cell count, white blood cell differential, and platelet count) were obtained in order to monitor blood chemistry, hematology and inflammation measurements. The blood chemistry profile included serum creatinine, and liver function tests such as aspartate aminotransferase (AST) serum glutamic oxaloacetic transaminase (SGOT), alkaline phosphatase, and gamma-glutamyl transferase (GGT). The effect of gNO on coagulation was determined by the prothrombin time (PT) and its derived measures of prothrombin ratio (PR) and international normalized ratio (INR). Heparinized plasma was collected at baseline and on days 1, 2, 4, and 5 of gNO administration, and on follow-up days 3, 7 and 21 and frozen at −80° C. Plasma cytokine levels were assessed using the human inflammation cytokine bead array kit (BD Bioscience, Canada). Plasma levels of angiopoietin Ang-1 and Ang-2 were determined by ELISA (R&D Systems, USA).

Serracia sp. = settings: 200 ppm gNO, saline suspension; cited from earlier work
Enterobacter sp. = settings: 200 ppm gNO, saline suspension; cited from earlier work
[3] = intermittent gNO inhalation; cited from earlier work
[4] = topical 200 ppm gNO, cited from earlier work
[5] = test system: vascular endothelial activation factors Ang-1 and Ang-2; assay: Phase I safety study: plasma angiopoietin Ang-1 and Ang-2; assay type: in vivo, human; settings: vs baseline
Description: as §1, §2

[6] = test system: five planktonic species of methicillin resistant S. aureous (MRSA); settings: exposure to 1,600 ppm hours of gNO; cited from earlier work
Klebsiella sp.#1 = settings: 200 ppm gNO, saline suspension; cited from earlier work
P. aeruginosa = settings: cited from earlier work
E. Coli = settings: 200 ppm gNO, saline suspension; cited from earlier work
[7] = Phase I safety study: hematology, clinical chemistry and coagulation; assay type: in vivo, human; settings: end of study; baseline 0.15; p=0.104
Description: as §1
Hematological assessment included a complete blood count and differentials (hemoglobin, hematocrit, red blood cell count, white blood cell count, white blood cell differential, and platelet count) were obtained in order to monitor blood chemistry, hematology and inflammation measurements. […] The effect of gNO on coagulation was determined by the prothrombin time (PT) and its derived measures of prothrombin ratio (PR) and international normalized ratio (INR). […] Plasma cytokine levels were assessed using the human inflammation cytokine bead array kit (BD Bioscience, Canada). Plasma levels of angiopoietin Ang-1 and Ang-2 were determined by ELISA (R&D Systems, USA).

[8] = gNO concentrations below 200 ppm, 6 hours/day for 28 days, rats; cited from earlier work
[9] = Phase I open label safety study in healthy adults: adverse events and vital signs; assay type: in vivo, human
Text: 10 healthy adult volunteer subjects (5 males, 5 females), aged 20 to 62 years, were enrolled in the study after screening their medical history, a physical examination, pulmonary function tests and blood values. Exclusion criteria included individuals less than 19 years of age, pregnant females and unwilling to practice birth control during the study, diagnosed with pulmonary disease, epistaxis, hemoptysis, methemoglobinemia, organ transplant recipient or receiving antibiotic therapy.
as §1
Subjects were administered gNO through a modified disposable mouthpiece to maximize mixing. Inspiration was spontaneously initiated by the subject from a conventional intermittent positive pressure breathing respirator (Mark-7, Carefusion, USA) in fixed flow mode delivering 48 liters per minute (LPM). Flows of gas were verified with a calibrated mass flow meter (TSI, USA). Gaseous nitric oxide (gNO, obtained at INOmax, Ikaria, USA) at a concentration of 800 ppm delivered at a flow of 12 LPM was titrated into a distal delivery port on the mouth piece connected to the respirator during inspiratory phase only (pressure switch). The Mark 7 respirator was supplied by an air/oxygen blender (Bird Sentry, Carefusion, USA) set to deliver 26% oxygen.
Cardiovascular status was determined by monitoring heart rate, blood pressure, respiratory rate and temperature. Values were recorded prior to the start of each gNO administration, following a 5 minute rest. During treatments, vital signs (except temperature) were also performed 15 minutes after the start of the treatment and at the end of gNO administration and recorded. After the first treatment each day, vital signs were recorded at every 30 minutes until the start of the second gNO administration of the day.

methemoglobin = settings: healthy humans, cited from earlier work
[10] = levels of gNO greater than 120 ppm

## [N]=O [gNO, nitric oxide]
S. aureus (Clinical)
  LD100: 4 h
  Latent Period: 3 h
  −2.5 Log10 (hours): 3.7 hours
[1]
  viral replication and infectivity: reduced not only viral replication but also their infectivity
[2]; 160 ppm gNO 30 minutes, five times a day, five days
  lowest observed SpO2: 93%
[2]; during or after gNO administration
  incidences of hypoxemia (less than 85% SpO2): No sudden incidences of hypoxemia
[2]; not significant statistically nor clinically
  SpO2 levels over time between pretreatment and post treatment: decreased slightly
Inflammatory cytokines
  cytokine level of IL-1b: unaffected
  cytokine level of IL-6: unaffected
  cytokine level of IL-8: unaffected
  cytokine level of IL-10: unaffected
  cytokine level of IL-12p70: unaffected
  cytokine level of TNF: unaffected
Serracia sp.
  LD100: 6 h
  Latent Period: 4 h
  −2.5 Log10 (hours): 4.9 hours
Enterobacter sp.
  LD100: 6 h
  Latent Period: 4 h
  −2.5 Log10 (hours): 5.3 hours
[3]
  clinical symptoms of bovine respiratory disease: shown to decrease the clinical symptoms
[4]; at one week
  wound size reduction: 42%
[4]; within the first three days of treatment
  biofilm presence: no longer visibly present
[5]
  Ang-1 plasma level: unaffected
  Ang-2/Ang-1 ratio: not affected
  Ang-2 plasma level: not affected
[6]
  population of planktonic MRSA strains: A reduction in the population of all five MRSA planktonic strains was observed
Klebsiella sp.#1
  LD100: 6 h
  Latent Period: 3 h
  −2.5 Log10 (hours): 3.5 hours
P. aeruginosa; [10]
  reduction of colony formation: greater than 90%
  time required to achieve greater than 90% reduction of colony formation: 8 to 12 h
P. aeruginosa; solid media, increasing gNO concentration up to 160 ppm, vs medical air
  survival (downward bactericidal trend): 5-10%
E. Coli
  LD100: 5 h
  Latent Period: 3 h
  −2.5 Log10 (hours): 4.2 hours
[7]
  eosinophil cell numbers: 0.19 giga/L
[8]
  mortality: No deaths occurred
[9]; 160 ppm gNO 30 minutes, five times a day, five days, 10 healthy adults
  minor adverse events reported: Three minor adverse events were reported
[9]; 160 ppm gNO 30 minutes, five times a day, five days, 10 healthy adults, 250 administrations
  tolerability and adverse events: well tolerated and no significant adverse events were observed
[9]; during and after 160 ppm gNO administration
  vital signs: remained within normal limits
[9]; during or after 160 ppm gNO administration
  blood pressure: no drop in blood pressure
methemoglobin; inhalation of gNO at 128 ppm for 3 hours
  MetHb level: > 5%
methemoglobin; inhalation of gNO at 512 ppm for 55 minutes
  MetHb level: > 5%

— patent US20150044305A1, “[…] NITRIC OXIDE FOR TREATING RESPIRATORY DISEASES” (Advanced Inhalation Therapies (AIT) Ltd., priority 2012, published 2015)
